Like-named read-outs stand apart in the source and are kept apart here.
How the values were obtained:
Experiment in all cases: Glasshouse assay for herbicidal activity (pre- and post-emergence), percentage phytotoxicity
Type in all cases: in vivo
[1] = system: Echinochloa crus-galli (ECHCG); settings: Echinochloa crus-galli
Method in brief: (§1)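 Visually rated damage, 0–100%. PRE spray 1 d after sowing, scored 20 DAA; POST spray ~12 d, scored 15 DAA. Glasshouse at 65% humidity, 16 h day.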

[2] = system: Avena fatua (AVEFA); settings: Avena fatua
Method in brief: as §1

[3] = system: Lolium perenne (LOLPE); settings: Lolium perenne
Method in brief: as §1

[4] = system: Alopecurus myosuroides (ALOMY); settings: Alopecurus myosuroides
Method in brief: as §1

[5] = post-emergence, 360 h, Rate 250 g/ha, post-emergence, assessed visually 15 DAA, 100%=total damage, 0%=no damage, read-out: Post-emergence herbicidal activity (percentage phytotoxicity) ECHCG POST
[6] = pre-emergence, 480 h, Rate 250 g/ha, pre-emergence, assessed visually 20 DAA, 100%=total damage, 0%=no damage, read-out: Pre-emergence herbicidal activity (percentage phytotoxicity) ECHCG PRE
[7] = post-emergence, 360 h, Rate 250 g/ha, post-emergence, assessed visually 15 DAA, 100%=total damage, 0%=no damage, read-out: Post-emergence herbicidal activity (percentage phytotoxicity) AVEFA POST
[8] = pre-emergence, 480 h, Rate 250 g/ha, pre-emergence, assessed visually 20 DAA, 100%=total damage, 0%=no damage, read-out: Pre-emergence herbicidal activity (percentage phytotoxicity) AVEFA PRE
[9] = post-emergence, 360 h, Rate 250 g/ha, post-emergence, assessed visually 15 DAA, 100%=total damage, 0%=no damage, read-out: Post-emergence herbicidal activity (percentage phytotoxicity) LOLPE POST
[10] = pre-emergence, 480 h, Rate 250 g/ha, pre-emergence, assessed visually 20 DAA, 100%=total damage, 0%=no damage, read-out: Pre-emergence herbicidal activity (percentage phytotoxicity) LOLPE PRE
[11] = post-emergence, 360 h, Rate 250 g/ha, post-emergence, assessed visually 15 DAA, 100%=total damage, 0%=no damage, read-out: Post-emergence herbicidal activity (percentage phytotoxicity) ALOMY POST
[12] = pre-emergence, 480 h, Rate 250 g/ha, pre-emergence, assessed visually 20 DAA, 100%=total damage, 0%=no damage, read-out: Pre-emergence herbicidal activity (percentage phytotoxicity) ALOMY PRE

Structure (SMILES)	pest or weed control at 250 g/ha [1, 5]	pest or weed control at 250 g/ha [1, 6]	pest or weed control at 250 g/ha [2, 7]	pest or weed control at 250 g/ha [2, 8]	pest or weed control at 250 g/ha [3, 9]	pest or weed control at 250 g/ha [3, 10]	pest or weed control at 250 g/ha [4, 11]	pest or weed control at 250 g/ha [4, 12]	also measured
CCNC(=O)CC1CC(=O)C(c2c(C)cc(-c3ncc(Br)cn3)cc2C)C1=O (stereo not drawn) [Compound B282]									pest or weed control at 250 g/ha ([1]; post-emergence, 360 h, POST-emergence, rate 250 g/ha, visual score 15 DAA (100%=total damage, 0%=no damage), read-out: Post-emergence herbicidal activity (percentage phytotoxicity) ECHCG POST): 100%; pest or weed control at 250 g/ha ([1]; pre-emergence, 480 h, PRE-emergence, rate 250 g/ha, visual score 20 DAA (100%=total damage, 0%=no damage), read-out: Pre-emergence herbicidal activity (percentage phytotoxicity) ECHCG PRE): 100%; pest or weed control at 250 g/ha ([2]; post-emergence, 360 h, POST-emergence, rate 250 g/ha, visual score 15 DAA (100%=total damage, 0%=no damage), read-out: Post-emergence herbicidal activity (percentage phytotoxicity) AVEFA POST): 100%; pest or weed control at 250 g/ha ([2]; pre-emergence, 480 h, PRE-emergence, rate 250 g/ha, visual score 20 DAA (100%=total damage, 0%=no damage), read-out: Pre-emergence herbicidal activity (percentage phytotoxicity) AVEFA PRE): 100%; pest or weed control at 250 g/ha ([3]; post-emergence, 360 h, POST-emergence, rate 250 g/ha, visual score 15 DAA (100%=total damage, 0%=no damage), read-out: Post-emergence herbicidal activity (percentage phytotoxicity) LOLPE POST): 100%; pest or weed control at 250 g/ha ([3]; pre-emergence, 480 h, PRE-emergence, rate 250 g/ha, visual score 20 DAA (100%=total damage, 0%=no damage), read-out: Pre-emergence herbicidal activity (percentage phytotoxicity) LOLPE PRE): 100%; pest or weed control at 250 g/ha ([4]; post-emergence, 360 h, POST-emergence, rate 250 g/ha, visual score 15 DAA (100%=total damage, 0%=no damage), read-out: Post-emergence herbicidal activity (percentage phytotoxicity) ALOMY POST): 100%; pest or weed control at 250 g/ha ([4]; pre-emergence, 480 h, PRE-emergence, rate 250 g/ha, visual score 20 DAA (100%=total damage, 0%=no damage), read-out: Pre-emergence herbicidal activity (percentage phytotoxicity) ALOMY PRE): 100%
CCc1cccc(C)c1C1C(=O)CC(CC(=O)N2CCOCC2)C1=O (stereo not drawn) [Compound B148]									pest or weed control at 250 g/ha ([1]; post-emergence, 360 h, 250 g/ha, post-emergence, 15 DAA, visual assessment (100%=total damage, 0%=no damage), read-out: Post-emergence herbicidal activity (percentage phytotoxicity) ECHCG POST): 100%; pest or weed control at 250 g/ha ([1]; pre-emergence, 480 h, 250 g/ha, pre-emergence, 20 DAA, visual assessment (100%=total damage, 0%=no damage), read-out: Pre-emergence herbicidal activity (percentage phytotoxicity) ECHCG PRE): 100%; pest or weed control at 250 g/ha ([2]; post-emergence, 360 h, 250 g/ha, post-emergence, 15 DAA, visual assessment (100%=total damage, 0%=no damage), read-out: Post-emergence herbicidal activity (percentage phytotoxicity) AVEFA POST): 100%; pest or weed control at 250 g/ha ([2]; pre-emergence, 480 h, 250 g/ha, pre-emergence, 20 DAA, visual assessment (100%=total damage, 0%=no damage), read-out: Pre-emergence herbicidal activity (percentage phytotoxicity) AVEFA PRE): 70%; pest or weed control at 250 g/ha ([3]; post-emergence, 360 h, 250 g/ha, post-emergence, 15 DAA, visual assessment (100%=total damage, 0%=no damage), read-out: Post-emergence herbicidal activity (percentage phytotoxicity) LOLPE POST): 90%; pest or weed control at 250 g/ha ([3]; pre-emergence, 480 h, 250 g/ha, pre-emergence, 20 DAA, visual assessment (100%=total damage, 0%=no damage), read-out: Pre-emergence herbicidal activity (percentage phytotoxicity) LOLPE PRE): 80%; pest or weed control at 250 g/ha ([4]; post-emergence, 360 h, 250 g/ha, post-emergence, 15 DAA, visual assessment (100%=total damage, 0%=no damage), read-out: Post-emergence herbicidal activity (percentage phytotoxicity) ALOMY POST): 90%; pest or weed control at 250 g/ha ([4]; pre-emergence, 480 h, 250 g/ha, pre-emergence, 20 DAA, visual assessment (100%=total damage, 0%=no damage), read-out: Pre-emergence herbicidal activity (percentage phytotoxicity) ALOMY PRE): 70%
Cc1cc(-n2cc(Cl)cn2)cc(C)c1C1C(=O)CC(CC(=O)NCC(C)C)C1=O (stereo not drawn) [Compound A72]	90%	100%	90%	90%	80%	90%	90%	90%	
Cc1cc(C)c(C2C(=O)CC(CC(=O)N3CC(C)CC(C)C3)C2=O)c(C)c1 (stereo not drawn) [Compound A173]									pest or weed control at 250 g/ha ([1]; post-emergence, 360 h, post-emergence, 250 g/ha, 15 DAA, visual score (100%=total damage; 0%=no damage), read-out: ECHCG POST herbicidal activity (percentage phytotoxicity)): 30%; pest or weed control at 250 g/ha ([1]; pre-emergence, 480 h, pre-emergence, 250 g/ha, 20 DAA, visual score (100%=total damage; 0%=no damage), read-out: ECHCG PRE herbicidal activity (percentage phytotoxicity)): 10%; pest or weed control at 250 g/ha ([2]; post-emergence, 360 h, post-emergence, 250 g/ha, 15 DAA, visual score (100%=total damage; 0%=no damage), read-out: AVEFA POST herbicidal activity (percentage phytotoxicity)): 30%; pest or weed control at 250 g/ha ([2]; pre-emergence, 480 h, pre-emergence, 250 g/ha, 20 DAA, visual score (100%=total damage; 0%=no damage), read-out: AVEFA PRE herbicidal activity (percentage phytotoxicity)): 10%; pest or weed control at 250 g/ha ([3]; post-emergence, 360 h, post-emergence, 250 g/ha, 15 DAA, visual score (100%=total damage; 0%=no damage), read-out: LOLPE POST herbicidal activity (percentage phytotoxicity)): 60%; pest or weed control at 250 g/ha ([3]; pre-emergence, 480 h, pre-emergence, 250 g/ha, 20 DAA, visual score (100%=total damage; 0%=no damage), read-out: LOLPE PRE herbicidal activity (percentage phytotoxicity)): 80%; pest or weed control at 250 g/ha ([4]; post-emergence, 360 h, post-emergence, 250 g/ha, 15 DAA, visual score (100%=total damage; 0%=no damage), read-out: ALOMY POST herbicidal activity (percentage phytotoxicity)): 20%; pest or weed control at 250 g/ha ([4]; pre-emergence, 480 h, pre-emergence, 250 g/ha, 20 DAA, visual score (100%=total damage; 0%=no damage), read-out: ALOMY PRE herbicidal activity (percentage phytotoxicity)): 50%
C=CCCNC(=O)CC1CC(=O)C(c2c(C)cc(-n3cc(Cl)cn3)cc2C)C1=O (stereo not drawn) [Compound A76]	100%	100%	90%	90%	80%	90%	100%	90%	
COCC#CC(C)(C)NC(=O)CC1CC(=O)C(c2c(C)cc(-c3ncc(Cl)cc3F)cc2C)C1=O (stereo not drawn) [Compound A112]	100%	100%	100%	90%	100%	100%	90%	80%	

— patent US10206394B2, “Herbicidal compounds” (Syngenta Participations AG, priority 2014, dated 2019)
